Calls of active or inactive are those of the source.
Key:
[1] = cells; format: functional
[2] = M. tuberculosis H37Rv growth inhibitors, H37Rv strain (AID 1626); format: functional
[3] = target: T1, CAAX prenyl protease 2 (Saccharomyces cerevisiae S288c, UniProt Q03530); format: biochemical
T1 sequence (Q03530 whole entry): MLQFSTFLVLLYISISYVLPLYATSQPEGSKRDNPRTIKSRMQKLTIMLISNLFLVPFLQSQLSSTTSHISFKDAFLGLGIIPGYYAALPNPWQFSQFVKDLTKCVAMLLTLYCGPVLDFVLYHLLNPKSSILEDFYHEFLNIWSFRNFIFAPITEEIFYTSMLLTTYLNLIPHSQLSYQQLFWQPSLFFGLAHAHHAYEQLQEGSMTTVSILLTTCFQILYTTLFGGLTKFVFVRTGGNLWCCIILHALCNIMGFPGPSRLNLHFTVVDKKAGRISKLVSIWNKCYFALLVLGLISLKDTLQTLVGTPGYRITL

[4] = target: T2, Estrogen receptor (Homo sapiens, UniProt P03372);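 also: potency for inhibiting coactivator peptide recruitment to the receptor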
T2 sequence (P03372 whole entry): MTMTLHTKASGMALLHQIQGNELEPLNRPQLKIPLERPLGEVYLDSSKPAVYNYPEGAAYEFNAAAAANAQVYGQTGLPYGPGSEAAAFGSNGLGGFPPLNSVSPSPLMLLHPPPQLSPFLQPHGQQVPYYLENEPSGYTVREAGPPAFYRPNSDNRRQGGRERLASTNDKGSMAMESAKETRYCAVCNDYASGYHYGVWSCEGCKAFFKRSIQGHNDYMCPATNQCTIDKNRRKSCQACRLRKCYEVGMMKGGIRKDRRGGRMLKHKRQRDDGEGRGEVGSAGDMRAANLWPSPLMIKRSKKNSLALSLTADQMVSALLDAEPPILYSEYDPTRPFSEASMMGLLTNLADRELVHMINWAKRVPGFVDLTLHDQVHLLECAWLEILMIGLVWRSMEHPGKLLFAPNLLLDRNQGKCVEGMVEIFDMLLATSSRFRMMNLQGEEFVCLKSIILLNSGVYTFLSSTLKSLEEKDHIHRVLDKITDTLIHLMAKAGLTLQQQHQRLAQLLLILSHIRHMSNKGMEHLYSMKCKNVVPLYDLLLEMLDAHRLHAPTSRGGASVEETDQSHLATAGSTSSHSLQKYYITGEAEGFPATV

[5] = target: Ion channel NompC (Danio rerio, UniProt Q7T1G6); assay: Fluorescence counterscreen assay for TRPML3 agonists: dose response cell-based high-throughput screening assay to identify agonists of the transient receptor potential channel N1 (TRPN1). [Related pubchem assays: 1526, 1424, 1448 ]; format: functional
[6] = target: T3, Mucolipin-3 (Homo sapiens, UniProt Q8TDD5); assay: Dose response cell-based high-throughput screening assay for agonists of the transient receptor potential channel ML3 (TRPML3). [Related pubchem assays: 1526, 1424, 1448 ]; format: functional
T3 sequence (Q8TDD5 whole entry): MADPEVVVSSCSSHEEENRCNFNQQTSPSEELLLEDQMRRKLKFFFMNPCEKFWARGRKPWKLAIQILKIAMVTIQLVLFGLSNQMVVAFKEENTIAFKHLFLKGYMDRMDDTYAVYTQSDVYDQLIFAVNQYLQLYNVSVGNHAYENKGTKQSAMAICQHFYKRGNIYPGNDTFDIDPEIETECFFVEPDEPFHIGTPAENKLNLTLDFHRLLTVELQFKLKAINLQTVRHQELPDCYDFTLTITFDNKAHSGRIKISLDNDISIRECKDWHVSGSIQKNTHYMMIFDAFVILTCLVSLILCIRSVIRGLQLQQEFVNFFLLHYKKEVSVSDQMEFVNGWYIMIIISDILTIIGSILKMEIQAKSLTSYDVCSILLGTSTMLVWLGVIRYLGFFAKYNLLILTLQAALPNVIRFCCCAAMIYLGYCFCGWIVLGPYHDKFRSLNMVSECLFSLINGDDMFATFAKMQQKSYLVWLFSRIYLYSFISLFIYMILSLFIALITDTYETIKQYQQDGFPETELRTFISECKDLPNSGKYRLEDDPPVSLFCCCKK

[7] = target: T4, Polyadenylate-binding protein 1 (Homo sapiens, UniProt P11940); assay: PABP inhibition in translation initiation, SAR follow-up (AID 435018); format: functional
[8] = target: Eukaryotic translation initiation factor 4H (Homo sapiens, UniProt Q15056); assay: eIF4H inhibition in translation initiation, SAR follow-up (AID 435011); format: functional
[9] = Luminescence Cell-Based Dose Retest to Confirm Inhibitors of Cancer Stem Cells. [Related pubchem assays (depositor defined):AID2717, AID2721]; format: functional; conditions: Homo sapiens
[10] = target: Induced myeloid leukemia cell differentiation protein Mcl-1 (Homo sapiens, UniProt Q07820); format: functional
[11] = target: Genome polyprotein (dengue virus type 2, UniProt P29990); assay: Dengue-2 NS5 methyltransferase inhibitors, primary screen, biochemical, confirmation dose response (AID 588689); format: functional
[12] = target: T5, Carboxy-terminal domain RNA polymerase II polypeptide A small phosphatase 1 (Homo sapiens, UniProt Q9GZU7); assay: inhibitors of CTDSP1, concentration-response testing, biochemical assay, absorbance-based, actives from ultra-high-throughput screening (AID 540297); format: functional
T5 sequence (Q9GZU7 whole entry): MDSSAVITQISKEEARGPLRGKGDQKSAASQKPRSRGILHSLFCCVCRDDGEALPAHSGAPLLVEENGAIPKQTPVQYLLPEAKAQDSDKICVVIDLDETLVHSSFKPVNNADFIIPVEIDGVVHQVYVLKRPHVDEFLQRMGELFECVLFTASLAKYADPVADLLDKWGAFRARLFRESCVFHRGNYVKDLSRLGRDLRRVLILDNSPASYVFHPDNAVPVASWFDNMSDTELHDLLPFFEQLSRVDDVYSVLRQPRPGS

[13] = target: T6, Bifunctional protein GlmU (Mycobacterium tuberculosis, UniProt P9WMN3); assay: Inhibitors of Mycobacterial Glucosamine-1-phosphate acetyl transferase (GlmU). Secondary screen.; design: species or system Mycobacterium tuberculosis H37Rv
T6 sequence (P9WMN3 whole entry): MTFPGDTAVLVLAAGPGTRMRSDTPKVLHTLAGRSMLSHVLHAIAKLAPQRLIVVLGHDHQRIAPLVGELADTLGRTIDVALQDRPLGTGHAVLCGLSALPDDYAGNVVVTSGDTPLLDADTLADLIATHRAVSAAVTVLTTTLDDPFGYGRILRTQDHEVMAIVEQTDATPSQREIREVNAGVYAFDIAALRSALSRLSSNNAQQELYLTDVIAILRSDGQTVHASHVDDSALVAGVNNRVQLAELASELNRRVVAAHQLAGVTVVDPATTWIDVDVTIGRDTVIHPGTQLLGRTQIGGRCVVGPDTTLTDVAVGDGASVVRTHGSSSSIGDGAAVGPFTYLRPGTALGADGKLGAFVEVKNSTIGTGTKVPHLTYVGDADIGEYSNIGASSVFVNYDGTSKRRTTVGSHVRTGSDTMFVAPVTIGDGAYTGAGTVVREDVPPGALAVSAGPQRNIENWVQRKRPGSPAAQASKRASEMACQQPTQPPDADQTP

[14] = target: Large T antigen (Simian virus 40, UniProt P03070); format: functional, Betapolyomavirus macacae;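 also: Confirmatory-stage PubChem screen for compounds that inhibit SV40 T antigen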
[15] = target: T7, Fatty acid synthase (Homo sapiens, UniProt P49327); assay: FAS thioesterase domain inhibitors, dose response, biochemical, kinetic fluorescence intensity (AID 624326); format: functional;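 also: rate of fluorescence rise from hydrolysis of a fluorogenic O-methyl fluorescein ester substrate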
[16] = target: Paired box protein Pax-8 (Homo sapiens, UniProt Q06710); assay: inhibitors of PAX8-driven TPO luciferase reporter, dose response, RMG-I cells, cherry-pick (AID 687027); format: functional, cell-based;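 also: luciferase reporter driven by Pax8 target thyroperoxidase promoter measured by SteadyGlo luminescence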
[17] = target: Heat shock protein HSP 90-alpha (Homo sapiens, UniProt P07900); format: functional, organism-based
[18] = target: T4, Polyadenylate-binding protein 1; assay: PABP1 MLLE–PAM2 binding inhibitor potency, dose response, biochemical, fluorescence polarization, FITC-PAM2 peptide (AID 602259); format: functional; conditions: read-out: IC50_Mean
[19] = target: T4, Polyadenylate-binding protein 1; assay: PABP1 MLLE–PAM2 interaction inhibitors, dose response, miRNA deadenylation inhibitor project, biochemical, fluorescence polarization, Cy5-PAM2 peptide, secondary (AID 602260); format: functional; conditions: read-out: IC50_Mean
[20] = test system: CHO; assay: cytotoxicity in TLR9-MyD88 CHO cells, dose response, cytotoxicity control for TLR9-MyD88 binding inhibitor project, cell-based, luminescence (AID 588339); format: functional, hamster; conditions: Cricetulus griseus;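 also: CHO cells stably coexpressing TLR9 and MyD88 fusions from primary screen; compound exposure lasted 48 hours before viability readout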
[21] = target: Beta Lactamase (Pseudomonas aeruginosa, UniProt Q932Y6); assay: beta-lactamase reporter inhibitor potency, dose response, artefact control for TLR9-MyD88 binding inhibitor project, BLA reporter cells, FRET fluorescence (AID 588341); format: cell-based;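 also: cell based assay in CHO-K1 cells stably expressing beta-lactamase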
[22] = non-specific cell cytotoxicity, dose response, cytotoxicity control for PAX8 inhibitor project, plate reader, dry powder samples (AID 743021); format: functional, cell-based
[23] = target: T7, Fatty acid synthase; assay: FAS thioesterase domain inhibitors, dose response, biochemical, endpoint fluorescence intensity, uHTS hits (AID 624327); format: functional;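 also: fluorescence from hydrolysis of an O-methyl fluorescein acyl ester substrate by the enzyme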
[24] = THP-1 cell cytotoxicity, dose response, cytotoxicity control for Vif-APOBEC3G degradation inhibitor project, THP-1 cells (AID 1117359); format: functional; conditions: Human immunodeficiency virus 1, THP-1
[25] = test system: Vero; assay: Vero cell cytotoxicity, cytotoxicity control for flavivirus capping enzyme inhibitors (AID 588742); format: functional; conditions: Chlorocebus sabaeus
[26] = target: T8, Tyrosyl-DNA phosphodiesterase 2 (Homo sapiens, UniProt O95551); assay: human TDP2 enzyme inhibitors, dose response, biochemical, epi absorbance, IC50 (AID 743297)
T8 sequence (O95551 whole entry): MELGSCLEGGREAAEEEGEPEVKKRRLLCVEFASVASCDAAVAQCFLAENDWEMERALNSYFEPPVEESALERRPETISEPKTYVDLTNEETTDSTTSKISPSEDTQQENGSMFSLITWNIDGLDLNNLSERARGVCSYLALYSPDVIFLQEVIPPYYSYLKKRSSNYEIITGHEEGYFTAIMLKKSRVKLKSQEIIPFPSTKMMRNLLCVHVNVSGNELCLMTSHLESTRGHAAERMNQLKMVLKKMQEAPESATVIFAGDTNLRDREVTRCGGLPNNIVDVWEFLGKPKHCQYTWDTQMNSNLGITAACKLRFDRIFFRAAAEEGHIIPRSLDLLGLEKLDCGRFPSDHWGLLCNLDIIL

[27] = target: T9, Hexokinase HKDC1 (Homo sapiens, UniProt Q2TB90); assay: HKDC1 hexokinase inhibitors, dose response, biochemical, W721R variant (AID 504729); format: functional
T9 sequence (Q2TB90 whole entry): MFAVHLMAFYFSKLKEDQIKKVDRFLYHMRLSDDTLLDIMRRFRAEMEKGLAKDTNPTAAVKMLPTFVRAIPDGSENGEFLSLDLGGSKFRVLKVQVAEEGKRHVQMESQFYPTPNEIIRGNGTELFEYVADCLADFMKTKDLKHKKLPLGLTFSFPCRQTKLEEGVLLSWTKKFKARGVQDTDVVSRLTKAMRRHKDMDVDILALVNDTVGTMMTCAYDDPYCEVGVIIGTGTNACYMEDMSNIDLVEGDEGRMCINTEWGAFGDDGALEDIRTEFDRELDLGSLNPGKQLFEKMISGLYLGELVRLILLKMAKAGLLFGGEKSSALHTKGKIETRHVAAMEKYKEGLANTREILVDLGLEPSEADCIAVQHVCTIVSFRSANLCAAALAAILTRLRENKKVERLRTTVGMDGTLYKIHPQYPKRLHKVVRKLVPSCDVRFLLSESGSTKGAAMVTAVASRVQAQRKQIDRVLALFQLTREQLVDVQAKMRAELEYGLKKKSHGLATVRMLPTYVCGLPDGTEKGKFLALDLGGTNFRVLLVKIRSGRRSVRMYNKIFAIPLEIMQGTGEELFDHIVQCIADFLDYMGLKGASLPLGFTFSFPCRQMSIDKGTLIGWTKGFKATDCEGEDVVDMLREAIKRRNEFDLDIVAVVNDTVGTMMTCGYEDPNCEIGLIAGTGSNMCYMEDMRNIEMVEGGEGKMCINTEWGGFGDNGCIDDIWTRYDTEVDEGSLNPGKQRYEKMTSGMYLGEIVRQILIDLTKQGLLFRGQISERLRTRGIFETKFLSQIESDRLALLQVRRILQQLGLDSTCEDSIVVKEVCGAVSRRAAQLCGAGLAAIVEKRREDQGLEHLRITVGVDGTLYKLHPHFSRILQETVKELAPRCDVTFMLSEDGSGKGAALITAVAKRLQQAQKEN

Ion channel NompC, sequence (Q7T1G6 whole entry): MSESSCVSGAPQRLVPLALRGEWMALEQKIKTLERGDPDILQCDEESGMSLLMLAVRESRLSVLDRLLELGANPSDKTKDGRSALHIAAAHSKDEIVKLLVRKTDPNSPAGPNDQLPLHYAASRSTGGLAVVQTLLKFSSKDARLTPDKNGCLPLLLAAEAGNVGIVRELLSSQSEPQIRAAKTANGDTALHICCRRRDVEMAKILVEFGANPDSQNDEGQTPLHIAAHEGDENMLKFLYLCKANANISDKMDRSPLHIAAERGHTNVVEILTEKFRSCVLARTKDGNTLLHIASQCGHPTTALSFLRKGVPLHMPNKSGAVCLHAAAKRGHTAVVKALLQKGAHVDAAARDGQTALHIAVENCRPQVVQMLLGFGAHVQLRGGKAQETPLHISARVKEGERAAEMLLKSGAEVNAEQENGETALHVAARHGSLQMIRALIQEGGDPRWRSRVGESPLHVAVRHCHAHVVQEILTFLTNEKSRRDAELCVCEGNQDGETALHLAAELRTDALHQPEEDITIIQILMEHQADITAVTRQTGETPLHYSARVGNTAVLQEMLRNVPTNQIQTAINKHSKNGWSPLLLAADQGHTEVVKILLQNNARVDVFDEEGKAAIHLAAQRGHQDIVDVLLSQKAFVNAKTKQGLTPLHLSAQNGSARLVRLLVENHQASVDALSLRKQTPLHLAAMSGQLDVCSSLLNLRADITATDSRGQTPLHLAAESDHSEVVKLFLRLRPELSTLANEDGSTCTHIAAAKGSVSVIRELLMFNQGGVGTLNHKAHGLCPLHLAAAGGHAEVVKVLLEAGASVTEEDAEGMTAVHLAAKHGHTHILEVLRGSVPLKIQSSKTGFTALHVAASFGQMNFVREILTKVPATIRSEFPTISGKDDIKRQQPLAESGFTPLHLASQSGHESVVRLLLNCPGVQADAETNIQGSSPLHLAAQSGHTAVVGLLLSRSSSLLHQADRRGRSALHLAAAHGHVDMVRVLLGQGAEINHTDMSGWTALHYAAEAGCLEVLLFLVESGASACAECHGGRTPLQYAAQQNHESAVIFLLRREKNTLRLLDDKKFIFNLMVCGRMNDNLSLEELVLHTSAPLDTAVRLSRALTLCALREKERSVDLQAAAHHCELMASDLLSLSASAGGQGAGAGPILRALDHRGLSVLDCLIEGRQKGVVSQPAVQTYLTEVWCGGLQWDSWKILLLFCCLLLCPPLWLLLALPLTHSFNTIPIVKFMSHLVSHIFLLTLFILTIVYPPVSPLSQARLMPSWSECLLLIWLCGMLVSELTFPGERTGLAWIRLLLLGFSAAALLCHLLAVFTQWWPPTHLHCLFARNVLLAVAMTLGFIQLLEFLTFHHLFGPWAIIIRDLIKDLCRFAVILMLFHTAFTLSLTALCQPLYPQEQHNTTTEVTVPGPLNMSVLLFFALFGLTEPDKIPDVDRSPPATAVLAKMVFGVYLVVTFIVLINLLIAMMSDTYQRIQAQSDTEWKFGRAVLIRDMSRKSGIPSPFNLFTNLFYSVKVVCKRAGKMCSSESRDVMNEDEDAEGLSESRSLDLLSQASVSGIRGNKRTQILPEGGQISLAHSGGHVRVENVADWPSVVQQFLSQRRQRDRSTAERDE
T4 sequence (P11940 whole entry): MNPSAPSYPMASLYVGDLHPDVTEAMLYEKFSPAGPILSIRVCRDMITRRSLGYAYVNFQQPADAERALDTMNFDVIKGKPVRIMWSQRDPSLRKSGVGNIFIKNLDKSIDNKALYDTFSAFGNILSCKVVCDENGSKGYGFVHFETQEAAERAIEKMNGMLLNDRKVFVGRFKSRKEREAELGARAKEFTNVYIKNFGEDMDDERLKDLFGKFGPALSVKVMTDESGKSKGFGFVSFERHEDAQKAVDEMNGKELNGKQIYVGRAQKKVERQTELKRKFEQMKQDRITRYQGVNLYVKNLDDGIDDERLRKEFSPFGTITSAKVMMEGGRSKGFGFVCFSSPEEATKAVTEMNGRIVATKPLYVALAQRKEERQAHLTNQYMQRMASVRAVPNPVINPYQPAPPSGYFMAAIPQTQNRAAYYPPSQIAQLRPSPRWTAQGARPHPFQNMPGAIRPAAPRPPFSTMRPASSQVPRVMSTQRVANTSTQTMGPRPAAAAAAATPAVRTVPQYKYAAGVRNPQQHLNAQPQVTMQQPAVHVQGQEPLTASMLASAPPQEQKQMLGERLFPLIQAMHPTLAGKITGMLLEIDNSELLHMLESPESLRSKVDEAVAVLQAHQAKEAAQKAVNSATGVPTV
Genome polyprotein, sequence (P29990 2492-3391 limits assumed): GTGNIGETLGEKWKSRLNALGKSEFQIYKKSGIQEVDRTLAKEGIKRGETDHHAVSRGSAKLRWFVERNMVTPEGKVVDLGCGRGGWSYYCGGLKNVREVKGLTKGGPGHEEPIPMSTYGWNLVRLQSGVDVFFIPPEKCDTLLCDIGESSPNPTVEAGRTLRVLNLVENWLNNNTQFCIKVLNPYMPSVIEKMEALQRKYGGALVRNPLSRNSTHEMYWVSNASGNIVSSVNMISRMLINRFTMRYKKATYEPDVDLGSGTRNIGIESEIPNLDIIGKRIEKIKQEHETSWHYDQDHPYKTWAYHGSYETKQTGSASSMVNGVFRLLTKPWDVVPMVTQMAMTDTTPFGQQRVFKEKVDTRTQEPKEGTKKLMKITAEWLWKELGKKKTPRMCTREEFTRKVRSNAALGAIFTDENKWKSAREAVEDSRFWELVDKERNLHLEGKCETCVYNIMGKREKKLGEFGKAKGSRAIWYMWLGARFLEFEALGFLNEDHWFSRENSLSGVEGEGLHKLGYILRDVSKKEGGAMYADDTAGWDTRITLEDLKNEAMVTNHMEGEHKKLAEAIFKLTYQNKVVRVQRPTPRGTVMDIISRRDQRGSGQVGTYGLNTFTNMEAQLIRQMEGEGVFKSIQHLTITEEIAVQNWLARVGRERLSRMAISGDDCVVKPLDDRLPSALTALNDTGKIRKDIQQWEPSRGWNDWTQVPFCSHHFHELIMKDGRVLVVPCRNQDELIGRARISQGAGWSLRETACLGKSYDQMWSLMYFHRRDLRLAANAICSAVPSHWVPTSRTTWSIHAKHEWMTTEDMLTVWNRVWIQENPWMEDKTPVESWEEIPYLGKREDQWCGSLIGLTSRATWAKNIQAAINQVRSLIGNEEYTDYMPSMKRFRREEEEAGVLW
Beta Lactamase, sequence (Q932Y6 whole entry): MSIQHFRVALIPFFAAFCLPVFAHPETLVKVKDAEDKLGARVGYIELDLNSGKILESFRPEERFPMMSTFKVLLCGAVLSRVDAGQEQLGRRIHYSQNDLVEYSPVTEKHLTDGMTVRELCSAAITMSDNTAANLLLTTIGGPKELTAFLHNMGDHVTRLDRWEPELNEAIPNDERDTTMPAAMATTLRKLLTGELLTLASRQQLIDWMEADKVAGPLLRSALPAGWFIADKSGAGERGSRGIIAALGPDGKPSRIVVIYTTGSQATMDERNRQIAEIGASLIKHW
Large T antigen, sequence (P03070 whole entry, the tested form may be a part): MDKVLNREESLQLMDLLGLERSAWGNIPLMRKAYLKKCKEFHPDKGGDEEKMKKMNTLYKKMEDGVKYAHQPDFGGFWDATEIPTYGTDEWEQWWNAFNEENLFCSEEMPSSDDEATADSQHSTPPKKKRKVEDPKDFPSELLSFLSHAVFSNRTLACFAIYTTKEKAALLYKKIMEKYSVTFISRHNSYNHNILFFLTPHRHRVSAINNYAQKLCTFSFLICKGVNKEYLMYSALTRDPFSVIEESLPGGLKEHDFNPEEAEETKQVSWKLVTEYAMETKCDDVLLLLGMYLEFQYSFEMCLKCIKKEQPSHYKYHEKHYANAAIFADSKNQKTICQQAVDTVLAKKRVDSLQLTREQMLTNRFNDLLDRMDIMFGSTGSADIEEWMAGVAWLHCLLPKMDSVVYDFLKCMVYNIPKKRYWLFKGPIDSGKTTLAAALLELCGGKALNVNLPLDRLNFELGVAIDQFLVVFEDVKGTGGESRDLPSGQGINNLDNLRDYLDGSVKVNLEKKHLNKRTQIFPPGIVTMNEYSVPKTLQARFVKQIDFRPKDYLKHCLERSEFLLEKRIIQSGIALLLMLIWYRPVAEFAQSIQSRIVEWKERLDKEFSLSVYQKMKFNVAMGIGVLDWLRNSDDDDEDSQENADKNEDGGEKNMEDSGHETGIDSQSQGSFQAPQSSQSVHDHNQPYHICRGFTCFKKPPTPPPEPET
Paired box protein Pax-8, sequence (Q06710 whole entry): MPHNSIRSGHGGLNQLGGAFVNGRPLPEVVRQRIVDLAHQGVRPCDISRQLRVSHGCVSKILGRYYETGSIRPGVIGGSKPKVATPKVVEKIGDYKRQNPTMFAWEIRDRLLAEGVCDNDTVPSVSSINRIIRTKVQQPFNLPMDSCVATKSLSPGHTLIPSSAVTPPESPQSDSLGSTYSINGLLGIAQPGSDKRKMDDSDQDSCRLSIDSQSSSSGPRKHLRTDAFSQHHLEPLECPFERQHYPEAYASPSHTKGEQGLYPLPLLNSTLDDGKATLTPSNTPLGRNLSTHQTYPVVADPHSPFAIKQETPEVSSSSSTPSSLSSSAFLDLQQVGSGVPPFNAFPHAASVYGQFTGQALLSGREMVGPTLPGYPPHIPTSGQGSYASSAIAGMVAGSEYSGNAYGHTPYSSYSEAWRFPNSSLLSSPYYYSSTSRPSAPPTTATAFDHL

CCOC(=O)c1ccc(-n2c(CCC(=O)O)ccc2-c2cccs2)cc1
IC50 [1]: 36.2 µM (active)
IC50 [2]: > 100 µM (active)

Cc1ccc(OCCn2c3ccccc3n3nc(C)c(=O)nc23)cc1
AC50 [3]: 6.85 µM (active)

CCOc1cccc(-c2nnc3sc(-c4cc(OC)c(OC)c(OC)c4)nn23)c1
IC50 [4]: > 50 µM (not active)

CCC1CCCCN1S(=O)(=O)c1ccccc1[N+](=O)[O-] (stereo unspecified)
EC50 [5]: > 29.9 µM (not active)
EC50 [6]: 6.06 µM (active)

COc1ccc(NC(=O)C2CCCN2C(=O)Oc2ccccc2)cc1 (stereo unspecified)
IC50 [7]: > 100 µM (inactive)
IC50 [8]: > 100 µM (inactive)

CCC1CCCCN1S(=O)(=O)c1ccc(S(=O)(=O)N(Cc2ccccn2)CC2CCCO2)cc1 (stereo unspecified)
EC50 [5]: > 29.9 µM (not active)
AC50 [9]: 2.4 µM (active)
EC50 [6]: 1.81 µM (active)
IC50 [10]: < 0.4 µM (not active)

O=C1NN(c2ccccc2)C(=O)/C1=C/c1ccc(-c2ccc(Cl)c(C(=O)O)c2)o1
IC50 [11]: 32.2 µM (active)
IC50 [12]: 4.07 µM (active)
IC50 [13]: 80.4 µM (active)
IC50 [14]: 17.1 µM (active)

O=S(=O)(NC1CCCCCC1)c1cccc2cccnc12
EC50 [5]: > 29.9 µM (not active)
EC50 [6]: 3.4 µM (active)

COc1cc(/C=N/NC(=O)c2ccccc2)ccc1OCC(=O)Nc1ccc([N+](=O)[O-])cc1
IC50 [7]: 49.5 µM (active)
IC50 [8]: 2.74 µM (active)

CCCC(=O)NC1=C(Cl)C(=O)c2ccccc2C1=O
IC50 [15]: 12.7 µM (active)
AC50 [16]: 2.54 µM (active)
AC50 [17]: < 0.195 µM (active)
IC50 [18]: > 66 µM (inactive)
IC50 [19]: > 66 µM (inactive)
IC50 [20]: 0.891 µM (active)
IC50 [11]: 14.5 µM (active)
IC50 [21]: 6.78 µM (active)
AC50 [22]: 28.3 µM (active)
IC50 [23]: 37.7 µM (inactive)
CC50 [24]: 3.81 µM (active)
CC50 [25]: 27.4 µM (active)
IC50 [26]: 11.8 µM (inactive)
IC50 [27]: 3.93 µM (active)

Cc1sc(N)nc1-c1ccccc1
IC50 [2]: > 100 µM (active)

O/N=C/c1ccc2ccccc2c1
IC50 [2]: > 100 µM (active)

From ChEMBL document CHEMBL1201862, “PubChem BioAssay data set” (2004)
